For the experiment, the target named is T1, Mth α-subunit (NrdE) of Class Ib ribonucleotide reductase (Mycolicibacterium thermoresistibile, UniProt G7CEK2).
T1 sequence (G7CEK2 1-693): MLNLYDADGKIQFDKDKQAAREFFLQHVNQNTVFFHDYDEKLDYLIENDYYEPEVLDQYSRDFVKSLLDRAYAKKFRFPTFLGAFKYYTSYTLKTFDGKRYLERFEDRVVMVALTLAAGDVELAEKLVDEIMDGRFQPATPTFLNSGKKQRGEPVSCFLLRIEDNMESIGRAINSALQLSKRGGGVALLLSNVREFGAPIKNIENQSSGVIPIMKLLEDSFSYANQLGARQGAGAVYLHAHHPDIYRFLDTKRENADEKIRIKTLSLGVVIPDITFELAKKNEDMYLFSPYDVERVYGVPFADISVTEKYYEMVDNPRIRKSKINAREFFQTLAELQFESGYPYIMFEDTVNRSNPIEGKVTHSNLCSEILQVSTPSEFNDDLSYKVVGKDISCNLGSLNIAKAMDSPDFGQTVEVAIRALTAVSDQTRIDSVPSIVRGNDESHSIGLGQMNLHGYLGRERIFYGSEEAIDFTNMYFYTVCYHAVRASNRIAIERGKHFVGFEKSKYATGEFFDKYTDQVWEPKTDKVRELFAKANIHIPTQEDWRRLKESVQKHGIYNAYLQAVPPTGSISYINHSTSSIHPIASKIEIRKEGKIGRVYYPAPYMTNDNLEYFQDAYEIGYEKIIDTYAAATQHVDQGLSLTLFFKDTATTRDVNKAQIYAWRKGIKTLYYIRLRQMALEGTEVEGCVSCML
The experiment is described as follows: isothermal titration calorimetry. Type of experiment: binding.
As to `Cc1cn([C@@H]2O[C@H](COP(=O)(O)OP(=O)(O)OP(=O)(O)O)[C@@H](O)[C@H]2O)c(=O)[nH]c1=O` [TTP], the Kd (usually the constant that tells how readily two partners part at equilibrium) was determined as 0.64 µM. `Nc1ncnc2c1ncn2[C@H]1C[C@H](O)[C@@H](COP(=O)(O)OP(=O)(O)OP(=O)(O)O)O1` [dATP] displayed a Kd of 1.1 µM.

Take `Nc1ccn([C@H]2C[C@H](O)[C@@H](COP(=O)(O)OP(=O)(O)OP(=O)(O)O)O2)c(=O)n1` [dCTP]: the Kd amounted to 6.6 µM. Consider `Nc1nc2c(ncn2[C@H]2C[C@H](O)[C@@H](COP(=O)(O)OP(=O)(O)OP(=O)(O)O)O2)c(=O)[nH]1` [dGTP], for which binding was characterised by a dissociation constant (Kd) of 4.6 µM. Compound `Cc1cn([C@H]2C[C@H](O)[C@@H](COP(=O)(O)OP(=O)(O)OP(=O)(O)O)O2)c(=O)[nH]c1=O` [dTTP] gave a Kd of 3.3 µM.

The values above are taken from article doi:10.64898/2025.12.21.695763v2 (biorxiv, 2026).
